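Briefly, cells in 96-well plates were exposed to five compound concentrations for 48 h, and endpoints were estimated by linear interpolation. Abbreviation: GI50, concentration required for 50% inhibition of growth. TGI: total growth inhibition.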
How the values were obtained:
Test in all cases: NCI-60 cell line screen, 48 h
HCT-15 colon = tested on: HCT-15 colon
LOX IMVI melanoma = tested on: LOX IMVI melanoma
NCI-H226 lung = tested on: NCI-H226 lung
OVCAR-3 ovarian = tested on: OVCAR-3 ovarian
OVCAR-5 ovarian = tested on: OVCAR-5 ovarian
PC-3 prostate = tested on: PC-3 prostate
SF-539 CNS = tested on: SF-539 CNS
SN12C renal = tested on: SN12C renal
SNB-19 CNS = tested on: SNB-19 CNS
SNB-75 CNS = tested on: SNB-75 CNS

Row | SMILES | GI50 (HCT-15 colon) [µM] | TGI (HCT-15 colon) [µM] | GI50 (LOX IMVI melanoma) [µM] | TGI (LOX IMVI melanoma) [µM] | GI50 (NCI-H226 lung) [µM] | TGI (NCI-H226 lung) [µM] | GI50 (OVCAR-3 ovarian) [µM] | TGI (OVCAR-3 ovarian) [µM] | GI50 (OVCAR-5 ovarian) [µM] | TGI (OVCAR-5 ovarian) [µM] | GI50 (PC-3 prostate) [µM] | TGI (PC-3 prostate) [µM] | GI50 (SF-539 CNS) [µM] | TGI (SF-539 CNS) [µM] | GI50 (SN12C renal) [µM] | TGI (SN12C renal) [µM] | GI50 (SNB-19 CNS) [µM] | TGI (SNB-19 CNS) [µM] | GI50 (SNB-75 CNS) [µM] | TGI (SNB-75 CNS) [µM]
1 | COc1ccc(/C=C/c2c(C(=O)/C=C/c3ccccc3)c(C)nc3ccccc23)cc1 | 1.38 | 3.77 | 1.69 | 3.08 | 1.81 | 4.02 | 1.65 | 3.12 | 1.91 | 3.65 | 1.66 | 3.81 | 1.76 | 3.2 | 2.05 | 4.63 | 1.66 | 3.07 | 1.46 | 4.44
2 | CC(=O)O[C@H]1CCC2[C@@H]3CC[C@]4(C)CC(=O)C=C[C@]4(C)C3CC[C@@]21C (some centres undefined) | – | 38.7 | – | 30.9 | – | > 77.7 | – | 31.6 | – | > 100 | – | 77.1 | – | 31.8 | – | 55.9 | – | > 100 | – | > 93.1
3 | Cc1cc(C(=O)Nc2ccc3cc(CN4CCOCC4)ccc3n2)c(C)n1-c1ccccc1 | 2.41 | 20.4 | 1.99 | 15.2 | 0.374 | 5.92 | 1.58 | 6.72 | 10.2 | 57.6 | 1.34 | 6.69 | 4.84 | 27.7 | 5.75 | > 92.3 | 17.6 | > 100 | 3.42 | 15.8
4 | COCC[C@H]1CCC/C=C/[C@@H]2C[C@H](O)C[C@H]2[C@H](O)/C=C/C(=O)O1 | 0.314 | > 100 | 0.0434 | 0.179 | 0.0293 | 0.121 | 0.0505 | 0.273 | 0.247 | > 100 | 0.193 | > 100 | 0.213 | > 100 | 0.274 | > 100 | 0.191 | > 100 | 0.0423 | > 100
5 | COc1cc(OC)c(C(=O)/C=C/c2cccc(C(F)(F)F)c2)c(OC)c1 | 0.942 | 2.68 | 1.04 | 2.42 | 1.16 | 3.74 | 2.03 | 6.89 | 2.28 | 7.04 | 1.64 | 6.05 | 1.37 | 3.5 | 1.52 | 5.68 | 1.44 | 4.67 | 1.88 | 7.9
6 | COc1ccc(C(=O)c2cc(C)c(OC)c(C)c2)cc1OC(=O)CCl | < 0.01 | > 100 | < 0.01 | > 100 | 4.27 | > 100 | < 0.01 | 1.08 | 1.71 | > 100 | < 0.021 | > 100 | < 0.01 | < 0.01 | < 0.01 | > 100 | < 0.01 | > 100 | < 0.01 | > 100
7 | O=C1c2cccnc2-c2nc(-c3ccc(Cl)cc3)cc3c2c1nc1ccccc13 | 23.9 | > 100 | 35.7 | > 100 | 49.5 | > 100 | 24 | 75 | > 100 | > 100 | 47 | > 100 | 59.8 | > 100 | 24 | > 100 | > 100 | > 100 | 57.9 | > 100
8 | CC(C)c1ccc(-c2cc(-c3cn[nH]c3-c3ccccn3)ccn2)cc1 | 8.65 | > 25 | 14.6 | > 25 | 12.1 | > 25 | 8.4 | > 25 | > 16.6 | > 25 | 9 | > 25 | 25 | > 25 | 15.9 | > 25 | 20.5 | > 25 | > 9.11 | > 25
9 | Cc1cc(C)c(NC(=O)c2sc3nc4c(cc3c2N)C(=O)CCC4)c(C)c1 | 2.59 | > 100 | 5.39 | > 100 | 5.81 | > 100 | 2.46 | 8.62 | 7.98 | > 100 | 1.96 | > 100 | 2.59 | > 30.6 | 7.42 | > 100 | 6.12 | > 100 | 2.28 | > 100
10 | CCc1nc(N)nc(N)c1-c1ccc(NC)c([N+](=O)[O-])c1 | – | > 100 | – | > 100 | – | > 100 | – | > 100 | – | > 100 | – | > 100 | – | > 100 | – | > 100 | – | > 80.4 | – | > 100
11 | C=CCCCCC/C=C\[C@@H](O)C#CC#C/C=C/CO | > 100 | > 100 | 17.2 | 32.1 | 25.5 | 57.6 | 41.7 | > 100 | > 100 | > 100 | 28 | > 100 | > 100 | > 100 | 57.5 | > 100 | > 100 | > 100 | 0.536 | > 100
12 | O=C(Nc1n[nH]c2cc(-c3ccccc3)ccc12)C1CC1 | 4.03 | > 25 | 16 | > 25 | > 25 | > 25 | 5.34 | 16.9 | > 25 | > 25 | 10.5 | > 25 | 13 | > 25 | 16.3 | > 25 | > 19.8 | > 25 | > 20.9 | > 25
13 | CC(C)c1c(O)c(O)c2c(c1O)C(=O)C(O)=C1C(C)(C)CCC[C@@]12C | – | 13.2 | – | 13.8 | – | 7.88 | – | 16.2 | – | 19.5 | – | 11.8 | – | 14.8 | – | 18.7 | – | 22.1 | – | 8.12
14 | COc1ccc(C(=O)c2cc(C)c(OC)c(C)c2)c(OC)c1O | 0.0214 | > 100 | 0.0381 | > 100 | 2.71 | 9.06 | 0.0374 | – | 4.9 | > 100 | 0.0402 | > 100 | 0.0206 | 0.0532 | 0.0786 | > 100 | 0.0332 | > 100 | 0.026 | > 100
15 | COc1ccc2[nH]c3c4[nH]c5ccc(OC)cc5c4c4c(c3c2c1)C(=O)NC4=O | > 14.3 | > 25 | > 13.1 | > 25 | > 25 | > 25 | > 11.2 | > 25 | > 25 | > 25 | > 15.7 | > 25 | 1.31 | > 17 | 1.19 | > 25 | > 25 | > 25 | > 13.2 | > 25
16 | COc1c(C(=O)/C=C/c2ccccc2)c(O)cc2occc12 | 5.25 | 22.7 | 1.69 | 3.31 | 6.03 | 20.8 | 3.76 | 11.3 | 5.67 | 19.8 | 7.01 | 37.9 | 3.22 | 13.5 | 4.48 | 15.8 | 7.33 | 20.4 | 2.42 | 15.1
17 | COC(=O)Nc1nc2ccc(C3(c4ccc(F)cc4)OCCO3)cc2[nH]1 | 0.178 | > 100 | 0.732 | > 100 | 2.15 | > 94 | 0.301 | – | 0.614 | > 100 | 0.341 | > 100 | 0.196 | 0.52 | 0.584 | > 100 | 0.483 | > 100 | 0.262 | 98.4
18 | CCCC(CCC)NCC(O)c1cc(-c2ccc(C(F)(F)F)cc2)nc(C(F)(F)F)c1 (centres undefined) | 1.77 | 3.53 | 1.53 | 2.97 | 1.59 | 3.08 | 1.93 | 3.38 | 1.55 | 2.95 | 1.75 | 3.33 | 1.67 | 3.26 | 1.69 | 3.2 | 1.79 | 3.42 | 1.72 | 3.3
19 | COc1ccc(C2=C(Cl)c3cc(OC)c(OC)cc3C2Cl)cc1 (centres undefined) | – | 30.6 | – | 27.5 | – | 66 | – | 30.9 | – | 29.2 | – | 26.3 | – | 30.8 | – | 30.5 | – | 39.5 | – | 8.46
20 | NC(=O)c1cc(Cl)ccc1NC(=O)/C=C/c1ccccc1 | 2.38 | > 100 | 4.33 | > 100 | 6.42 | > 100 | 1.3 | 2.89 | – | > 58.7 | 3.2 | > 100 | 2.05 | 5.53 | 5.47 | > 100 | 4.47 | > 55.6 | 3.16 | > 23.7
21 | CC/C=C\C[C@H](O)C/C=C1/C(=O)C=C[C@@H]1C/C=C\CCCC(=O)OC | 0.538 | 2.79 | 0.237 | 0.609 | 2.17 | 4.63 | 0.692 | 2.13 | 2.7 | 6.69 | 2.7 | 7.29 | 2.75 | 7.33 | 2.55 | 10.2 | 2.88 | 14 | 11.7 | 26
22 | O=c1cc(NCC(O)CN2CCCC2)n(Cc2ccccc2)c(=O)n1Cc1ccccc1 (centres undefined) | 50.9 | > 100 | 18.5 | 38.7 | > 100 | > 100 | > 100 | > 100 | > 100 | > 100 | 26.9 | 84.1 | > 100 | > 100 | > 100 | > 100 | > 100 | > 100 | 25.3 | 81.5
23 | COc1cc2ncnc(-n3ncc4cc(NC(=O)Nc5ccccc5)ccc43)c2cc1OC | 0.579 | 11.1 | 0.722 | 2.75 | 1.07 | 4.06 | 2.08 | 13.1 | 1.24 | 13.8 | 1.09 | 3.36 | 0.23 | 17.3 | 1.14 | 5.78 | 2.29 | 17.7 | 0.191 | 5.69
24 | C/C(=N\Nc1ccc(Cl)cn1)c1ccc2ccccc2n1 | 0.64 | > 100 | 2.02 | > 100 | 11.5 | > 100 | 0.545 | > 100 | 5.44 | > 100 | 3.44 | > 100 | 2.57 | 27.6 | 3.19 | > 100 | 3.3 | > 100 | 3.3 | > 100
25 | CCCCC(CC)COC(=O)C[N+](C)(C)CCOC(c1ccccc1)c1ccccc1 (centres undefined) | 13.8 | 31.2 | 1.66 | 3.02 | 6.83 | 27.4 | 1.79 | 3.64 | 4.11 | 15.8 | 3.21 | 11.7 | 2.32 | 5.27 | 2.43 | 6 | 1.85 | 3.76 | 2.13 | 5.27
26 | CC1=C(/C=C/Cl)CC(Cl)C(C)(Cl)C1 (centres undefined) | – | > 100 | – | > 100 | – | > 100 | – | – | – | > 100 | – | > 100 | – | > 100 | – | > 100 | – | > 100 | – | > 100
27 | CCc1nc2cc(F)c(/C=C/C(=O)NO)cc2c(=O)n1CCc1ccccc1 | 0.36 | 18.6 | 0.208 | 0.46 | 0.371 | 7.36 | 0.323 | 10.8 | 0.402 | 17.6 | 0.526 | 59.4 | 0.341 | 3.36 | – | – | 0.46 | 17 | 0.356 | 13.8
